Measured values from patent publication US10278971B2, “Fluorocyclopentenylcytosine methods of use” (Rexahn Pharmaceuticals, Inc., priority 2015, dated 2019).

Key:
[1] = tested on: A2780 cells; experiment: Protein expression by western blot; format: cell-based, human; settings: A2780, 0.1 μM to 10 μM, 48 h
Description: The influence of RX-3117 on protein expression during different treatment conditions was analyzed by western blot. Cells were lysed using 1× cell lysis buffer (Cell Signaling, Danvers, Mass., USA) containing 4% protease inhibitor cocktail (Roche Diagnostics, Mannheim, Germany) on ice for 30 minutes and centrifuged for 10 minutes at 4° C. at 14,000 rpm. Bio-Rad assay was performed to determine protein amount in the collected supernatant as described earlier (Lemos C, Kathmann I, Giovannetti E, Calhau C, Jansen G and Peters G J: Impact of cellular folate status and epidermal growth factor receptor expression on BCRP/ABCG2-mediated resistance to gefitinib and erlotinib. Br J Cancer 100: 1120-7, 2009). The following antibodies were used for protein expression: γH2A.X (cat#9718, Cell Signaling, 1:1000), β-actin (Sigma, 1:10,000), Cdc25C Ser216 (cat#4901, Cell Signaling, 1:1000), Cdk1 Tyr15 (cat#9111, Cell Signaling, 1:1000), […] (cat#2197S, Cell Signaling, 1:1000), Histone 3 (cat#4499, Cell Signaling). Antibodies were diluted in 1:1 solution with Rockland buffer (Rockland Inc, Philadelphia, Pa.) and phosphate buffered saline (PBS) supplemented with 0.05 Tween 20. Proteins were separated in 20% SDS-PAGE gel and transferred to polyvinylidene difluoride (PVDF) membrane. […] Proteins were detected by an Odyssey InfraRed Imager (Li-COR Bioscience, Lincoln, Nebr.).

[2] = tested on: DNMT1; experiment: DNMT1 protein expression by Western Blotting; format: cell-based, human; settings: for downregulation of DNMT1 protein expression: A549 and SW1573, 5-50 μM
Description: The mechanism of cell cycle arrest was investigated by measuring cell cycle proteins expression using western blotting. The influence of RX-3117 on protein expression during different treatment conditions was analyzed by western blot. Cells were lysed using cell lysis buffer 1× (Cell Signaling, Danvers, Mass., USA) containing 4% protease inhibitor cocktail (Roche Diagnostics, Mannheim, Germany) on ice for 30 minutes and centrifuged for 10 minutes at 4° C. at 14,000 rpm. The protein containing supernatant was collected and the Bio-Rad assay was performed to determine protein amount as described in Lemos et al., Pharmacogenomics, 12(2):159-70 (2011). The following antibodies were used for protein expression: DNMT1 (Cell Signaling, 1:1000 #5032S), DNMT3A (Cell Signaling 1:1000 #2160S), DNMT3B (Abcam, 1; 1000), Chk2 (Cell Signaling 1:1000 #6334P), Chk1 (Cell Signaling 1:1000), p-CDC25C (Cell Signaling 1:1000 #4901S), Cdk1 (Cell Signaling 1:1000 #9112S), Cdk2 (Cell Signaling 1:1000 #2546S), wee1 (Cell Signaling 1:1000), 5139-γH2A.X (Cell Signaling, 1:1000), β actin (Sigma, 1:10,000), Caspase 9 (Cell Signaling, 1:1000), PARP (Roche 2003, 1:1000), p53 (Cell Signaling, 1:1000, #9282). The antibodies were diluted in 1:1 solution Rockland buffer (Rockland Inc., Philadelphia, Pa., USA) and PBS supplemented with 0.05% Tween® 20. The proteins were separated in 20% SDS-PAGE and transferred to a PVDF membrane. For fluorescent signal secondary antibodies goat anti-mouse InfraRedDye and goat anti-rabbit InfraRedDye were used. The proteins were detected by an Odyssey InfraRed Imager (Li-COR Bioscience, Lincoln, Nebr., USA).
DNMT1 protein expression was measured by Western Blotting after exposure to RX-3117 for 24 or 48 hr. DNMT1 RNA expression was measured by real-time PCR after 24 and 48 hr exposure to RX-3117. DNMT enzyme activity was measured in isolated nuclei after exposure 1 μM RX-3117 or 5 μM aza-CdR using a DNA methyltransferase assay kit provided by EpiGentek using the ability of a CpG dinding domain to bind to methylated DNA. In A549 cells the effect of 5 μM RX-3117 on overall methylation was measured with a specific antibody against 5-methyl-cytosine. Bands on Western blots were visualized using appropriate InfraRedDye using an Odyssey InfraRed imager.

Nc1ccn([C@@H]2C(F)=C(CO)[C@@H](O)[C@H]2O)c(=O)n1 [RX-3117, 4-amino-1-((1S,4R,5S)-2-fluoro-4,5-dihydroxy-3-hydroxymethyl-cyclopent-2-enyl)-1H-pyrimidin-2-one]
γH2A.X S139 induction [1]: induction of γH2A.X S139 in a dose dependent manner | DNMT1 protein expression ([2]; A549, at higher dose (1-75 μM tested)): down regulates | downregulation of DNMT1 protein expression ([2]; 24 hour exposure): 5-20% | downregulation of DNMT1 protein expression ([2]; 48 hr): > 90% | DNMT1 protein expression ([2]; A2780, 1 μM, 24 hr): protein down regulation was already observed
